# Residues, ends and D or L forms follow the SMILES beside them.
# Tests used:
# [1] = Ocular tissue concentration of ONL1204 after intravitreal injection in rabbit eye (LC-MS/MS); conditions: rabbit vitreous humor; single dose 0.1 mg/eye IVT, days 0 to 168
# Protocol: Standards and blanks were vortex mixed. […] Two hundred (200) uL of water was added.
# The samples were then vortex mixed for 5 minutes.
# The samples were dried with nitrogen at 35° C.
# [2] = tested on: retinal pigment epithelial cell death; experiment: Sodium iodate (NaIO3) challenge study, lesion area by fluorescein angiography; type: in vivo; conditions: rabbit
# Protocol: The resulting area was then measured.
smiles,measurement,setting,value
CC[C@H](C)[C@H](NC(=O)[C@H](Cc1ccc(O)cc1)NC(=O)[C@H](CC(N)=O)NC(=O)[C@@H](NC(=O)[C@H](C)NC(=O)CNC(=O)[C@H](CC(C)C)NC(=O)[C@H](Cc1ccc(O)cc1)NC(=O)[C@@H](NC(=O)[C@H](Cc1cnc[nH]1)NC(=O)[C@@H](N)Cc1cnc[nH]1)[C@@H](C)CC)C(C)C)C(=O)N[C@@H](Cc1ccc(O)cc1)C(N)=O [ONL1204] (H-HHIYLGAVNYIY-NH2),t1/2 (half-life in the vitreous),[1],279.8 days
same,Lesion size vs negative control,"[2]; 25 ug per eye IVT on Day 0, NaIO3 challenge Day 4",significantly lower than negative control
same,Lesion size vs negative control,"[2]; 100 ug per eye IVT on Day 0, NaIO3 challenge Day 4",significantly lower than negative control
same,Lesion size vs negative control,"[2]; 100 ug per eye IVT on Day 0, NaIO3 challenge Day 14",significantly smaller lesion size then both negative controls and those treated with 25 ug
same,Lesion size vs negative control,"[2]; 100 ug per eye IVT on Day 0, NaIO3 challenge Day 28",significantly smaller lesion size then both negative control animals and those treated with 25 ug
